ChEMBL document CHEMBL3885861, “Open TG-GATES”

Organism: Rattus norvegicus
Assay: Open TG-GATES - Regimen: Single
Assay type: toxicity, organism-based, Sprague-Dawley
Parameters: regimen Single, gender Male, age 6 weeks
Conditions: in vivo, po, 1200 mg/kg, route gavage, dose level Middle; for APTT / Bas / Eos / Fbg / Hb / Ht / Lym / MCH / MCHC / MCV / Mono / Neu / PT / Plat / RBC / Ret / WBC: tissue Blood; for KIDNEY_L / KIDNEY_R / KIDNEY_TOTAL: tissue Kidney; for LIVER: tissue Liver; for A/G / ALP / ALT / AST / BUN / CRE / Ca / Cl / DBIL / GLC / IP / K / LDH / Na / PL / RALB / TBIL / TC / TG / TP / gamma-GTP: tissue Plasma

Compound: CCO [ALCOHOL]
- TERMINAL_BW (3 h): 203.8 g
- APTT (3 h): 18.7 s
- Bas (3 h): 0%
- Eos (3 h): 1%
- Fbg (3 h): 200 mg/dL
- Hb (3 h): 13.2 g/dL
- Ht (3 h): 39.1%
- Lym (3 h): 72%
- MCH (3 h): 22.1 pg
- MCHC (3 h): 33.7%
- MCV (3 h): 65.5 fL
- Mono (3 h): 5.6%
- Neu (3 h): 21.6%
- PT (3 h): 12.4 s
- Plat (3 h): 108.6 x10_4/uL
- RBC (3 h): 596.8 x10_4/ul
- Ret (3 h): 8.1%
- WBC (3 h): 95.6 x10_2/uL
- KIDNEY_L (3 h): 0.9 g
- KIDNEY_R (3 h): 1 g
- KIDNEY_TOTAL (3 h): 1.9 g
- LIVER (3 h): 9.2 g
- A/G (3 h): 2.8
- ALP (3 h): 973.6 IU/L
- ALT (3 h): 38 IU/L
- AST (3 h): 69.8 IU/L
- BUN (3 h): 9 mg/dL
- CRE (3 h): 0.5 mg/dL
- Ca (3 h): 10.7 mg/dL
- Cl (3 h): 104.6 meq/L
- DBIL (3 h): 0.016 mg/dL
- GLC (3 h): 204.4 mg/dL
- IP (3 h): 8.9 mg/dL
- K (3 h): 4.5 meq/L
- LDH (3 h): 121.2 IU/L
- Na (3 h): 140 meq/L
- PL (3 h): 138 mg/dL
- RALB (3 h): 3.8 g/dL
- TBIL (3 h): 0.4 mg/dL
- TC (3 h): 74.8 mg/dL
- TG (3 h): 60.8 mg/dL
- TP (3 h): 5.2 g/dL
- gamma-GTP (3 h): 1.2 IU/L
- TERMINAL_BW (6 h): 203.8 g
- APTT (6 h): 17.5 s
- Bas (6 h): 0%
- Eos (6 h): 1.2%
- Fbg (6 h): 196.6 mg/dL
- Hb (6 h): 13.3 g/dL
- Ht (6 h): 39.9%
- Lym (6 h): 67%
- MCH (6 h): 21.7 pg
- MCHC (6 h): 33.3%
- MCV (6 h): 65 fL
- Mono (6 h): 12%
- Neu (6 h): 19.4%
- PT (6 h): 12.2 s
- Plat (6 h): 98.4 x10_4/uL
- RBC (6 h): 615.4 x10_4/ul
- Ret (6 h): 13.5%
- WBC (6 h): 87.4 x10_2/uL
- KIDNEY_L (6 h): 0.9 g
- KIDNEY_R (6 h): 1 g
- KIDNEY_TOTAL (6 h): 1.9 g
- LIVER (6 h): 9.2 g
- A/G (6 h): 2.4
- ALP (6 h): 827.2 IU/L
- ALT (6 h): 36 IU/L
- AST (6 h): 71 IU/L
- BUN (6 h): 11.4 mg/dL
- CRE (6 h): 0.5 mg/dL
- Ca (6 h): 10.5 mg/dL
- Cl (6 h): 105.2 meq/L
- DBIL (6 h): 0.066 mg/dL
- GLC (6 h): 203 mg/dL
- IP (6 h): 10.3 mg/dL
- K (6 h): 4.6 meq/L
- LDH (6 h): 87 IU/L
- Na (6 h): 140.8 meq/L
- PL (6 h): 132.4 mg/dL
- RALB (6 h): 3.8 g/dL
- TBIL (6 h): 0.4 mg/dL
- TC (6 h): 69.2 mg/dL
- TG (6 h): 59.4 mg/dL
- TP (6 h): 5.3 g/dL
- gamma-GTP (6 h): 1.8 IU/L
- TERMINAL_BW (9 h): 201.5 g
- APTT (9 h): 17.2 s
- Bas (9 h): 0%
- Eos (9 h): 1.6%
- Fbg (9 h): 204.2 mg/dL
- Hb (9 h): 13.5 g/dL
- Ht (9 h): 40.2%
- Lym (9 h): 73%
- MCH (9 h): 21.2 pg
- MCHC (9 h): 33.5%
- MCV (9 h): 63.3 fL
- Mono (9 h): 7.4%
- Neu (9 h): 18.2%
- PT (9 h): 12.1 s
- Plat (9 h): 114.7 x10_4/uL
- RBC (9 h): 635.8 x10_4/ul
- Ret (9 h): 9.9%
- WBC (9 h): 73.2 x10_2/uL
- KIDNEY_L (9 h): 0.9 g
- KIDNEY_R (9 h): 0.9 g
- KIDNEY_TOTAL (9 h): 1.9 g
- LIVER (9 h): 8.4 g
- A/G (9 h): 2.8
- ALP (9 h): 845 IU/L
- ALT (9 h): 28.8 IU/L
- AST (9 h): 61.6 IU/L
- BUN (9 h): 11 mg/dL
- CRE (9 h): 0.5 mg/dL
- Ca (9 h): 10.9 mg/dL
- Cl (9 h): 105.8 meq/L
- DBIL (9 h): 0.042 mg/dL
- GLC (9 h): 192 mg/dL
- IP (9 h): 10.7 mg/dL
- K (9 h): 4.7 meq/L
- LDH (9 h): 102 IU/L
- Na (9 h): 136.4 meq/L
- PL (9 h): 132.2 mg/dL
- RALB (9 h): 4.1 g/dL
- TBIL (9 h): 0.4 mg/dL
- TC (9 h): 71.6 mg/dL
- TG (9 h): 35 mg/dL
- TP (9 h): 5.6 g/dL
- gamma-GTP (9 h): 1.4 IU/L
- TERMINAL_BW (24 h): 217.4 g
- APTT (24 h): 17.6 s
- Bas (24 h): 0%
- Eos (24 h): 1.2%
- Fbg (24 h): 207.2 mg/dL
- Hb (24 h): 13.2 g/dL
- Ht (24 h): 39.2%
- Lym (24 h): 73.4%
- MCH (24 h): 21.8 pg
- MCHC (24 h): 33.6%
- MCV (24 h): 64.9 fL
- Mono (24 h): 9.2%
- Neu (24 h): 16.4%
- PT (24 h): 11.4 s
- Plat (24 h): 113.3 x10_4/uL
- RBC (24 h): 604.6 x10_4/ul
- Ret (24 h): 10.6%
- WBC (24 h): 106.7 x10_2/uL
- KIDNEY_L (24 h): 1 g
- KIDNEY_R (24 h): 1 g
- KIDNEY_TOTAL (24 h): 1.9 g
- LIVER (24 h): 10.5 g
- A/G (24 h): 2.6
- ALP (24 h): 909 IU/L
- ALT (24 h): 37.8 IU/L
- AST (24 h): 64.8 IU/L
- BUN (24 h): 21.2 mg/dL
- CRE (24 h): 0.5 mg/dL
- Ca (24 h): 11 mg/dL
- Cl (24 h): 103.6 meq/L
- DBIL (24 h): 0 mg/dL
- GLC (24 h): 188 mg/dL
- IP (24 h): 8.8 mg/dL
- K (24 h): 4.9 meq/L
- LDH (24 h): 109.8 IU/L
- Na (24 h): 138.8 meq/L
- PL (24 h): 159.4 mg/dL
- RALB (24 h): 4 g/dL
- TBIL (24 h): 0.3 mg/dL
- TC (24 h): 83.6 mg/dL
- TG (24 h): 101.8 mg/dL
- TP (24 h): 5.6 g/dL
- gamma-GTP (24 h): 1 IU/L
